From patent US20210386779A1, “COMPOSITIONS AND METHODS FOR DIETARY ENHANCEMENT OF IMMUNE SYSTEM FUNCTION” (priority 2020, published 2021)

Assays:
[1] = Supplement-specific monitoring for side effects and toxicity over the study period; parameters: species or system human; settings: in vivo, po
From the text: Monitoring tor such side effects is expected to continue over and beyond the period of quina bark extract administration.
It appears to be appropriate to continue monitoring for oncological side effects over and beyond the period of quercetin administration.

[2] = target: SARS-CoV-2 viral S-spike binding to cells (UniProt P0DTC2+Q9BYF1); settings: supercomputer docking; cited from earlier work
[3] = tested on: COVID-19 and other flu-like illnesses (SARS-CoV-2); assay: 20-week clinical study: test group taking the core formulations monitored for symptoms of flu-like illness, with focus on COVID-19; format: in vivo, human; settings: for prophylactic efficacy against COVID-19 and other flu-like illnesses (conclusion in words): 20-week study; for symptomatic control group subjects (of 12) who had maintained supplementation with this component alone, without other core formulation components: 20 weeks, vitamin C 500-1000 mg daily, vitamin D3 1000-2000 IU daily
From the text: From late February/early March 2020, we recommended to patients seen in-office (and to numerous telemedicine patients) and to our staff members to follow a regimen of at least the core formulations. Of in-office patients and staff, 54 subjects started with the study's voluntary OTC regimen and, thereby, constituted the study test group (reduced to 53 subjects after the second study week by a voluntary withdrawal); while 60 declined the regimen—for reasons, when given, involving implementation's complexity and/or effort; and/or indicating barriers to implementation stemming from educational and/or socio-economic background—and constituted the study control group.
Over the study period, we monitored subjects for symptoms of flu-like illness, with an active focus on COVID-19. At the outset of the pandemic, our practice's access to COVID-19 testing was quite limited. At that point, we identified subjects as confirmed COVID-19 cases or, at least, as likely COVID-19 cases upon their earliest presentation of clinical symptoms of COVID-19; or upon their being test-confirmed as COVID cases as documented in locales and practices where testing was available. Asymptomatic/pre-symptomatic subjects—with special note taken of documented, self-reported or likely exposure to diagnosed or suspected COVID-19 cases—as well as subjects presenting symptoms of unspecified flu-like illnesses, were followed for subsequent development of COVID-19 symptoms. As testing became more available, the state/regional protocols were such that we would receive notification of individual ones among our subjects having tested positive, the testing generally conducted by a subject's primary care provider, and the notifications then sent by Ohio health agencies to all the infected patient's physicians.
One dose daily of the full core formulation regimen, as per Table 2.
Over the study period of 20+ weeks, we monitored 113 subjects (104 in-office patients and 9 staff members) for clinical symptoms of flu-like illnesses, with subsequent differential diagnosis (and, when available, with test-confirmation) of each symptomatic subject to distinguish COVID-19 from non-COVID-19 flu-like illness. We also maintained data of reported and/or observed subject exposures to clinical and/or test-confirmed cases of COVID-19.
The OTC regimen undertaken by test group subjects included the core formulations of zinc, zinc ionophores, vitamins and l-lysine, as well as at least some of the methods. […]

Compound | complications, side effects or toxicity observed over the study period [1] | rank for inhibition of SARS-CoV-2 viral S-spike binding to cells among FDA-approved compounds [2] | prophylactic efficacy against COVID-19 and other flu-like illnesses (conclusion in words) [3] | symptomatic control group subjects (of 12) who had maintained supplementation with this component alone, without other core formulation components [3]
O=c1c(O)c(-c2ccc(O)c(O)c2)oc2cc(O)cc(O)c12 [quercetin] | received no reports nor found any clinical signs of quercetin toxicity | fifth out of twenty top performers |  | 
O=C1O[C@H]([C@@H](O)CO)C(O)=C1O [vitamin C] |  |  | relative lack of anti-flu/anti-COVID-19 prophylactic efficacy | at least four
C=C1CC[C@H](O)C/C1=C/C=C1\CCC[C@]2(C)[C@@H]([C@H](C)CCCC(C)C)CC[C@@H]12 [vitamin D3] |  |  | relative lack of anti-flu/anti-COVID-19 prophylactic efficacy | at least three
